Measured values taken from ChEMBL document CHEMBL1150495, “Balanced angiotensin II receptor antagonists. I. The effects of biphenyl ortho-substitution on AT1/AT2 affinities” (Bioorg Med Chem Lett, 1994).

Assays:
Rattus norvegicus [1] = assay: Reduction of blood pressure by 30 mmHg in renal hypertensive rats by intravenous administration; format: functional
[2] = biological target: T1, Type-2 angiotensin II receptor (Rattus norvegicus, UniProt P35351); assay: Displacement of [125I]- Ang II from angiotensin II AT2 receptor in rat adrenal cortical microsomes; set-up: species or system Microsome
T1 sequence (P35351 whole entry): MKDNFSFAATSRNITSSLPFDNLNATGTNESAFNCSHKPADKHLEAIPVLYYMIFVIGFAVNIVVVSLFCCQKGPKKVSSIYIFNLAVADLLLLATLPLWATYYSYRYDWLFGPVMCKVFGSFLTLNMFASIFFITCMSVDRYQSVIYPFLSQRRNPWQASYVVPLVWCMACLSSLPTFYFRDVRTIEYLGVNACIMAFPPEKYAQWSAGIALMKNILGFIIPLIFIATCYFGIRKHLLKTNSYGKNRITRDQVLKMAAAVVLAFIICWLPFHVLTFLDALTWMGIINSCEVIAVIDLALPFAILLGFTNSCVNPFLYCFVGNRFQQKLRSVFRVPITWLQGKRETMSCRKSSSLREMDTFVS

Rattus norvegicus [3] = assay: Effective dose to lower blood pressure by 30 mmHg in renal hypertensive rats by peroral administration; format: functional; details: po
[4] = biological target: T2, Angiotensin II receptor (AT-1) type-1 (Rattus norvegicus, UniProt P29089+P25095); assay: Displacement of [125I]- Ang II from angiotensin II AT1 receptor in rat adrenal cortical microsomes; set-up: species or system Microsome
T2 sequence (P29089 whole entry): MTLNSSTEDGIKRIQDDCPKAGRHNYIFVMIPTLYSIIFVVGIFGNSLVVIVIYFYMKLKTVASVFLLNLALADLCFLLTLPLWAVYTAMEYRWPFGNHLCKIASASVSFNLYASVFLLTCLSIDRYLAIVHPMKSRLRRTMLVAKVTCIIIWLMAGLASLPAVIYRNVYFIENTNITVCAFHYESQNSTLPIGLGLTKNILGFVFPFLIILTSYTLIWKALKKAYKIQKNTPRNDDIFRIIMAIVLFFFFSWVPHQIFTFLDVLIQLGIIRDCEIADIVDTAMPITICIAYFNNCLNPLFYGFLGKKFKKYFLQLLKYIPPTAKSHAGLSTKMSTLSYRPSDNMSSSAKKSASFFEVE
T2 sequence (P25095 whole entry): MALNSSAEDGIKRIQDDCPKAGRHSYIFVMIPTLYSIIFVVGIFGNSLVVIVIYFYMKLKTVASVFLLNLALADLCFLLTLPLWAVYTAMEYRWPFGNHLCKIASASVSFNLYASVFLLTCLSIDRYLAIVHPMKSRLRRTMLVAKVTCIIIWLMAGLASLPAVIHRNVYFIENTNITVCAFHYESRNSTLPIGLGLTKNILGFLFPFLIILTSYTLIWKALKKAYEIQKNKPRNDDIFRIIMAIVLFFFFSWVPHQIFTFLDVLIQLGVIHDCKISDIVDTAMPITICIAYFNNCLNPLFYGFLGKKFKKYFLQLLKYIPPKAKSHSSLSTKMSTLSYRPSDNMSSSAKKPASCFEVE

[5] = biological target: Angiotensin II receptor (Homo sapiens) (UniProt P30556+P50052); assay: Affinity towards angiotensin receptor was expressed as the ratio of Angiotensin II AT2 receptor over Angiotensin II AT1 receptor; format: protein assay
Rattus norvegicus [6] = assay: Duration required to lower blood pressure by 30 mmHg in renal hypertensive rats at a dose of 3.0 mg/kg; format: functional
[7] = biological target: T1, Type-2 angiotensin II receptor; assay: Compound was tested for the inhibition of angiotensin II AT2 receptor by displacement of [125I]- Ang II to rat adrenal cortical microsomes

SMILES	ED30 (Rattus norvegicus [1])	IC50 [2]	ED30 (Rattus norvegicus [3])	IC50 [4]	Ratio [5]	Duration (Rattus norvegicus [6])	IC50 [7]
CCCCOC(=O)NS(=O)(=O)c1ccccc1-c1ccc(Cn2c(CCC)nc(CC)c2C=O)c(C)c1	0.23 mg/kg	9 nM	0.86 mg/kg	3 nM	–	–	–
CCCCOC(=O)NS(=O)(=O)c1ccccc1-c1ccc(Cn2c(CCC)nc(CC)c2C(=O)OC)cc1	–	40 nM	–	2 nM	–	–	–
CCCCOC(=O)NS(=O)(=O)c1ccccc1-c1ccc(Cn2c(CCC)nc(CC)c2C(=O)OC)c([N+](=O)[O-])c1	–	20 nM	–	7 nM	–	–	–
CCCc1nc(CC)c(C=O)n1Cc1ccc(-c2ccccc2S(=O)(=O)NC(=O)c2ccccc2)cc1	–	500 nM	–	2.4 nM	–	–	–
CCCCOC(=O)NS(=O)(=O)c1ccccc1-c1ccc(Cn2c(CCC)nc(CC)c2C=O)c(F)c1	0.13 mg/kg	2 nM	< 1 mg/kg	0.7 nM	–	–	–
CCCCOC(=O)NS(=O)(=O)c1ccccc1-c1ccc(Cn2c(CCC)nc(CC)c2C(=O)OC)c(Cl)c1	0.51 mg/kg	7 nM	0.44 mg/kg	–	2.3	>24 h	–
CCCCOC(=O)NS(=O)(=O)c1ccccc1-c1ccc(Cn2c(CCC)nc(CC)c2C(C)=O)c(C)c1	0.24 mg/kg	20 nM	0.55 mg/kg	2 nM	–	–	–
CCCc1nc(CC)c(C=O)n1Cc1ccc(-c2ccccc2-c2nn[nH]n2)cc1	0.04 mg/kg	> 10000 nM	–	2 nM	–	–	–
CCCc1nc(CC)c(C=O)n1Cc1ccc(-c2ccccc2-c2nn[nH]n2)cc1F	0.17 mg/kg	3000 nM	–	7 nM	–	–	–
CCCCOC(=O)NS(=O)(=O)c1ccccc1-c1ccc(Cn2c(CCC)nc(CC)c2C(C)=O)c(F)c1	0.1 mg/kg	3 nM	0.48 mg/kg	–	3	>24 h	–
CCCCOC(=O)NS(=O)(=O)c1ccccc1-c1ccc(Cn2c(CCC)nc(CC)c2C=O)cc1	0.23 mg/kg	10 nM	0.18 mg/kg	2 nM	–	–	–
CCCc1nc(C(F)(F)C(F)(F)F)c(C(=O)O)n1Cc1ccc(-c2ccccc2-c2nn[nH]n2)cc1Br	–	–	–	–	–	–	80 nM
CCCc1nc(CC)c(C=O)n1Cc1ccc(-c2ccccc2-c2nn[nH]n2)cc1Br	1.05 mg/kg	700 nM	–	20 nM	–	–	–
CCCc1nc(CC)c(C=O)n1Cc1ccc(-c2ccccc2-c2nn[nH]n2)cc1Cl	0.87 mg/kg	500 nM	–	10 nM	–	–	–
CCCCOC(=O)NS(=O)(=O)c1ccccc1-c1ccc(Cn2c(CCC)nc(CC)c2C(=O)OC)c(F)c1	0.11 mg/kg	4 nM	< 0.3 mg/kg	0.6 nM	–	–	–
CCCCOC(=O)NS(=O)(=O)c1ccccc1-c1ccc(Cn2c(CCC)nc(CC)c2C(=O)OC)c(C)c1	0.15 mg/kg	10 nM	0.56 mg/kg	3 nM	–	–	–
CCCNC(=O)NS(=O)(=O)c1ccccc1-c1ccc(Cn2c(CCC)nc(SC)c2C(=O)O)cc1	–	775 nM	–	0.3 nM	–	–	–
CCCCOC(=O)NS(=O)(=O)c1ccccc1-c1ccc(Cn2c(CCC)nc(CC)c2C(C)=O)cc1	0.26 mg/kg	80 nM	0.25 mg/kg	2 nM	–	–	–
CCCCOC(=O)NS(=O)(=O)c1ccccc1-c1ccc(Cn2c(CCC)nc(CC)c2C(=O)OC)c(Br)c1	–	20 nM	–	2 nM	–	–	–
CCCc1nc(CC)c(C=O)n1Cc1ccc(-c2ccccc2-c2nn[nH]n2)cc1C	1.4 mg/kg	1000 nM	–	40 nM	–	–	–
CCCc1nc(CC)c(C(=O)OC)n1Cc1ccc(-c2ccccc2S(=O)(=O)NC(=O)OCCC(C)C)cc1F	0.12 mg/kg	1 nM	0.67 mg/kg	–	1	>24 h	–
CCCc1nc(C(F)(F)C(F)(F)F)c(C(=O)O)n1Cc1ccc(-c2ccccc2-c2nn[nH]n2)cc1	–	> 10000 nM	–	3 nM	–	–	–
CCCCOC(=O)NS(=O)(=O)c1ccccc1-c1ccc(Cn2c(CCC)nc(CC)c2C(C)=O)c(Cl)c1	0.11 mg/kg	12 nM	0.96 mg/kg	6 nM	–	–	–
